# Laboratory results as given in US20070219209A1, “Piperazine Derivatives Of Alkyl Oxindoles” (GYÓGYSZERGYÁR RT., priority 2004, published 2007).
# Structures can show the parent of a compound that is named as a salt.
# Columns and labels:
# 5-HT7 receptor = target: T1, 5-HT7 receptor (Homo sapiens, UniProt P34969); assay: 5-HT7 receptor binding experiment; conditions: human cloned receptors; ligand 3H-LSD 1.0 nM; non-specific clozapine 25 μM
# T1 construct: expressed in transfected cells
# Experimental: For the determination of 5-HT7 receptor binding human cloned receptors were used. The α1 receptor binding was determined from isolated frontal cortex preparation of male Wistar rats weighing 120-200 g. The 5-HT uptake measurements were performed on samples from isolated cortex of male rats. The protein contents of membrane preparations were determined by the method of Lowry (1951).
# In the course of 5-HT7 and α1 receptor binding studies the ligands were ^3H-lizergic acid diethyl amide (LSD) (1.0 nM) and ^3H-prazosine (0.3 nM). Clozapine (25 μM) and prazosine (1 μM) were used for the measurement of non-specific bindings. The α1 binding studies were performed according to the methods of Reader and Greengrass (Reader, T. A., Briere, R., Grondin, L.: J. Neural Transm. 68, p. 79 (1987); Greengrass, P., Brenner, R.: Eur. J. Pharmacol. 55, p. 323 (1979)). In the serotonin uptake inhibition studies the ligand was tritiated serotonin, the non-specific ligand was fluoxetine (100 μM). On the test results Ki values were calculated.
# T1 sequence (P34969 whole entry): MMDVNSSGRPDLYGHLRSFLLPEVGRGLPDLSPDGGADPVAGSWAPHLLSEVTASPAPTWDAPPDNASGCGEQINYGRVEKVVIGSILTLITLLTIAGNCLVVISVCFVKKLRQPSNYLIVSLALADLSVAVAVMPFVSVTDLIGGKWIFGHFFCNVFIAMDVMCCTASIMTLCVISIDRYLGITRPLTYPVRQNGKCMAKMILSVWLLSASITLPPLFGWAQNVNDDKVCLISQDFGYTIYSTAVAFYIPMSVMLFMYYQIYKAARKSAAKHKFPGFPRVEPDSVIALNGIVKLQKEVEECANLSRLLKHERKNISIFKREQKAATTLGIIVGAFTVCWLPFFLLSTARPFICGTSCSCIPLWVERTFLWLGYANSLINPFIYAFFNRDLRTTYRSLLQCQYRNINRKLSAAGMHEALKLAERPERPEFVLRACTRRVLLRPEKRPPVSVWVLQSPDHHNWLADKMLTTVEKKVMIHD
Compound,melting point [°C],Ki (5-HT7 receptor) [µM]
"O=C1Nc2ccc(F)cc2C1CCCCN1CCN(c2cccc(Cl)c2)CC1 (stereo not drawn) (as salt: hydrochloride) [Example 6, 3-{4-[4-(3-Chlorophenyl)-piperazin-1-yl]-butyl}-5-fluoro-1,3-dihydro-2H-indol-2-one monohydrochloride]",180 to 184,
"O=C1Nc2cc(F)ccc2C1CCCCN1CCN(c2ccc(Cl)cc2)CC1 (stereo not drawn) (as salt: hydrochloride) [Example 8, 3-{4-[4-(4-Chlorophenyl)-piperazin-1-yl]-butyl}-6-fluoro-1,3-dihydro-2H-indol-2-one monohydrochloride]",149 to 151,
"O=C1Nc2ccccc2C1CCCCN1CCN(c2cccc(Cl)c2)CC1 (stereo not drawn) [Example 18, 3-{4-[4-(3-Chlorophenyl)-piperazin-1-yl]-butyl}-1,3-dihydro-2H-indol-2-one]",112 to 114,< 100
"Cc1ccc2c(c1)C(CCCCN1CCN(c3ccc(Cl)cc3)CC1)C(=O)N2 (stereo not drawn) [Example 10, 3-{4-[4-(4-Chlorophenyl)-piperazin-1-yl]-butyl}-5-methyl-1,3-dihydro-2H-indol-2-one]",159 to 161,< 100
"O=C1Nc2ccccc2C1CCCCN1CCN(c2ccc(Cl)c(Cl)c2)CC1 (stereo not drawn) [Example 12, 3-{4-[4-(3,4-Dichlorophenyl)-piperazin-1-yl]-butyl}-1,3-dihydro-2H-indol-2-one]",112 to 114,< 100
"O=C1Nc2ccccc2C1CCCCN1CCN(c2ccc(F)cc2)CC1 (stereo not drawn) [Example 11, 3-{4-[4-(4-Fluorophenyl)-piperazin-1-yl]-butyl}-1,3-dihydro-2H-indol-2-one]",113 to 115,< 100
"O=C1Nc2ccccc2C1CCCCN1CCN(c2ccc(F)c(Cl)c2)CC1 (stereo not drawn) [Example 14, 3-{4-[4-(3-Chloro-4-fluorophenyl)-piperazin-1-yl]-butyl}-1,3-dihydro-2H-indol-2-one monohydrochloride]",,< 100
O=C1Nc2ccc(F)cc2C1CCCCN1CCN(c2ccccc2)CC1 (stereo not drawn),140 to 144,
"O=C1Nc2ccccc2C1CCCCN1CCN(c2ccc(Cl)c(C(F)(F)F)c2)CC1 (stereo not drawn) [Example 15, 3-{4-[4-(4-Chloro-3-trifluoromethylphenyl)-piperazin-1-yl]-butyl}-1,3-dihydro-2H-indol-2-one monohydrochloride]",,< 100
"O=C1Nc2ccc(F)cc2C1CCCCN1CCN(c2cccc(Cl)c2)CC1 (stereo not drawn) [Example 6, 3-{4-[4-(3-Chlorophenyl)-piperazin-1-yl]-butyl}-5-fluoro-1,3-dihydro-2H-indol-2-one monohydrochloride]",,< 100
"O=C1Nc2ccc(F)cc2C1CCCCN1CCN(c2ccc(Cl)cc2)CC1 (stereo not drawn) (as salt: hydrochloride) [Example 7, 3-{4-[4-(4-Chlorophenyl)-piperazin-1-yl]-butyl}-5-fluoro-1,3-dihydro-2H-indol-2-one monohydrochloride]",193 to 196,
"O=C1Nc2ccc(F)cc2C1CCCCN1CCN(c2ccc(F)cc2)CC1 (stereo not drawn) [Example 16, 5-Fluoro-3-{4-[4-(4-fluorophenyl)-piperazin-1-yl]-butyl}-1,3-dihydro-2H-indol-2-one]",135 to 137,< 100
"O=C1Nc2ccccc2C1CCCCN1CCN(c2ccc(F)c(Cl)c2)CC1 (stereo not drawn) (as salt: hydrochloride) [Example 14, 3-{4-[4-(3-Chloro-4-fluorophenyl)-piperazin-1-yl]-butyl}-1,3-dihydro-2H-indol-2-one monohydrochloride]",180 to 183,
"O=C1Nc2ccccc2C1CCCCN1CCN(c2ccc(Cl)cc2)CC1 (stereo not drawn) [Example 17, 3-{4-[4-(4-Chlorophenyl)-piperazin-1-yl]-butyl}-1,3-dihydro-2H-indol-2-one]",136 to 137,< 100
"O=C1Nc2cc(F)ccc2C1CCCCN1CCN(c2ccc(Cl)cc2)CC1 (stereo not drawn) [Example 8, 3-{4-[4-(4-Chlorophenyl)-piperazin-1-yl]-butyl}-6-fluoro-1,3-dihydro-2H-indol-2-one monohydrochloride]",,< 100
"O=C1Nc2ccccc2C1CCCCN1CCN(c2ccc(Cl)c(C(F)(F)F)c2)CC1 (stereo not drawn) (as salt: hydrochloride) [Example 15, 3-{4-[4-(4-Chloro-3-trifluoromethylphenyl)-piperazin-1-yl]-butyl}-1,3-dihydro-2H-indol-2-one monohydrochloride]",123 to 125,
"O=C1Nc2ccccc2C1CCCCN1CCN(c2ccccc2)CC1 (stereo not drawn) [Example 24, 3-[4-(4-phenyl-piperazin-1-yl)-butyl]-1,3-dihydro-2H-indol-2-one]",110 to 113,
"O=C1Nc2ccc(F)cc2C1CCCCN1CCN(c2ccc(Cl)cc2)CC1 (stereo not drawn) [Example 7, 3-{4-[4-(4-Chlorophenyl)-piperazin-1-yl]-butyl}-5-fluoro-1,3-dihydro-2H-indol-2-one monohydrochloride]",,< 100
"O=C1Nc2ccc(F)cc2C1CCCCN1CCN(c2ccc(Cl)c(Cl)c2)CC1 (stereo not drawn) [Example 23, 3-{4-[4-(3,4-dichlorophenyl)-piperazine-1-yl]-butyl}-5-fluoro-1,3-dihydro-2H-indol-2-one]",118 to 120,
"Cc1ccc2c(c1)C(CCCCN1CCN(c3cccc(Cl)c3)CC1)C(=O)N2 (stereo not drawn) [Example 9, 3-{4-[4-(3-Chlorophenyl)-piperazin-1-yl]-butyl}-5-methyl-1,3-dihydro-2H-indol-2-one]",122 to 124,< 100
